Results as given in patent EP0908457B1, “3-(1,2-benzisothiazol- and isoxazol-5-Y1)-2,4(1H,3H)-pyrimidinedione or thione and 3-(1,2-benzisothiazol- and isoxazol-5-y1)-4(3H)-pyrimidinone or thione herbicidal agents” (BASF AKTIENGESELLSCHAFT, priority 1997, dated 1999).

Legend:
[1] = test system: Cyperus serotinus, Rottb.; assay: Preemergence weed control under flooded paddy conditions, CYPSE (Flatsedge); assay type: in vivo; details: for CYPSE: herbicidal effect rating 0-9, three to four weeks after treatment; on herbicidal effect rating, CYPSE: meaning of each grade not given here
Sagittaria pygmaea, L. = assay: Preemergence weed control under flooded paddy conditions, SAGPY (Arrowhead (Pygmaea)); assay type: in vivo; details: flooded paddy; for SAGPY: herbicidal effect rating 0-9, three to four weeks after treatment; on herbicidal effect rating, SAGPY: meaning of each grade not given here
[2] = test system: Monochoria vaginalis, Presl.; assay: Preemergence weed control under flooded paddy conditions, MOOVA (Monochoria); assay type: in vivo; details: flooded paddy; for MOOVA: herbicidal effect rating 0-9, three to four weeks after treatment; on herbicidal effect rating, MOOVA: meaning of each grade not given here
[3] = test system: Echinochloa oryzoides (Ard.) Fritsch.; assay: Preemergence weed control under flooded paddy conditions, ECHORC (Watergrass (Calif.)); assay type: in vivo; details: flooded paddy; for ECHORC: herbicidal effect rating 0-9, three to four weeks after treatment; on herbicidal effect rating, ECHORC: meaning of each grade not given here
[4] = test system: Oryza sativa, (L.) Tebonnet; details: in vivo; on herbicidal effect rating ORYSAT: meaning of each grade not given here
Cyperus iria = assay: Preemergence weed control under flooded paddy conditions, CYPIR (Rice Flatsedge); assay type: in vivo; details: flooded paddy; for CYPIR: herbicidal effect rating 0-9, three to four weeks after treatment; on herbicidal effect rating, CYPIR: meaning of each grade not given here
[5] = 0.0320 kg/ha, preemergence weeds
[6] = 0.0620 kg/ha, preemergence weeds
[7] = 0.1250 kg/ha, preemergence weeds
[8] = 0.2500 kg/ha, preemergence weeds
[9] = Rate 0.0320 kg/ha, preemergence, rated 3-4 weeks after treatment
[10] = Rate 0.0620 kg/ha, preemergence, rated 3-4 weeks after treatment
[11] = Rate 0.1250 kg/ha, preemergence, rated 3-4 weeks after treatment
[12] = Rate 0.2500 kg/ha, preemergence, rated 3-4 weeks after treatment
[13] = Rate 0.5000 kg/ha, preemergence, rated 3-4 weeks after treatment
[14] = Rate 0.2500 kg/ha, preemergence weeds, rated three to four weeks after treatment

Work on COC(OC)c1nsc2ccc(-n3c(=O)cc(C(F)(F)F)n(C)c3=O)cc12 [Example 453, 1,2-Benzisothiazole-3-carboxaldehyde, 5-[3,6-dihydro-3-methyl-2,6-dioxo-4-(trifluoromethyl)-1(2H)-pyrimidinyl]-, 3-(dimethylacetal)] yielded a CYPSE [1, 5] of 9.0, a CYPSE [1, 6] of 9.0 and a CYPSE [1, 7] of 9.0. The CYPSE [1, 8] was 9.0, the SAGPY (Sagittaria pygmaea, L.; [5]) was 9.0 and the SAGPY (Sagittaria pygmaea, L.; [6]) was 9.0. The SAGPY (Sagittaria pygmaea, L.; [7]) was 9.0, the SAGPY (Sagittaria pygmaea, L.; [8]) was 9.0 and the MOOVA [2, 5] was 9.0. It also gave an MOOVA [2, 6] of 9.0, an MOOVA [2, 7] of 9.0 and an MOOVA [2, 8] of 9.0. The ECHORC [3, 5] was 9.0, the ECHORC [3, 6] was 9.0 and the ECHORC [3, 7] was 9.0. The ECHORC [3, 8] was 9.0, the ORYSAT [4] was 9.0 and the CYPIR (Cyperus iria; [5]) was 9.0. For the same compound, the CYPIR (Cyperus iria; [6]) was 9.0, the CYPIR (Cyperus iria; [7]) was 9.0 and the CYPIR (Cyperus iria; [8]) was 9.0.
For Cc1ccc(OCC(=O)c2ccccc2)c(-c2nsc3ccc(-n4c(=O)cc(C(F)(F)F)n(C)c4=O)cc23)c1 [Example 537, 2,4(1H,3H)-Pyrimidinedione, 1-methyl-3-{3-[6-(phenacyloxy)-m-tolyl]-1,2-benzisothiazol-5-yl}-6-(trifluoromethyl)-], the “herbicidal effect rating, CYPSE” value [1, 9] was 0.0, the “herbicidal effect rating, CYPSE” value [1, 10] was 0.0 and the “herbicidal effect rating, CYPSE” value [1, 11] was 0.0. The “herbicidal effect rating, CYPSE” value [1, 12] was 0.0, the “herbicidal effect rating, CYPSE” value [1, 13] was 0.0 and the “herbicidal effect rating, SAGPY” value (Sagittaria pygmaea, L.; [9]) was 0.0. The “herbicidal effect rating, SAGPY” value (Sagittaria pygmaea, L.; [10]) was 0.0, the “herbicidal effect rating, SAGPY” value (Sagittaria pygmaea, L.; [11]) was 0.0 and the “herbicidal effect rating, SAGPY” value (Sagittaria pygmaea, L.; [12]) was 0.0. For the same compound, the “herbicidal effect rating, SAGPY” value (Sagittaria pygmaea, L.; [13]) was 0.0, the “herbicidal effect rating, MOOVA” value [2, 9] was 9.0 and the “herbicidal effect rating, MOOVA” value [2, 10] was 9.0. For the same compound, the “herbicidal effect rating, MOOVA” value [2, 11] was 9.0, the “herbicidal effect rating, MOOVA” value [2, 12] was 9.0 and the “herbicidal effect rating, MOOVA” value [2, 13] was 9.0. For the same compound, the “herbicidal effect rating, ECHORC” value [3, 9] was 3.4, the “herbicidal effect rating, ECHORC” value [3, 10] was 4.4 and the “herbicidal effect rating, ECHORC” value [3, 11] was 5.0. For the same compound, the “herbicidal effect rating, ECHORC” value [3, 12] was 9.0, the “herbicidal effect rating, ECHORC” value [3, 13] was 9.0 and the “herbicidal effect rating ORYSAT” value [4] was 0.0. For the same compound, the “herbicidal effect rating, CYPIR” value (Cyperus iria; [9]) was 0.0, the “herbicidal effect rating, CYPIR” value (Cyperus iria; [10]) was 0.0 and the “herbicidal effect rating, CYPIR” value (Cyperus iria; [11]) was 1.0. For the same compound, the “herbicidal effect rating, CYPIR” value (Cyperus iria; [12]) was 4.0 and the “herbicidal effect rating, CYPIR” value (Cyperus iria; [13]) was 9.0.
Cn1c(C(F)(F)F)cc(=O)n(-c2ccc3snc(CNS(C)(=O)=O)c3c2)c1=O [Example 305] was tested, and the “herbicidal effect rating, CYPSE” value [1, 14] was 0.0, the “herbicidal effect rating, SAGPY” value (Sagittaria pygmaea, L.; [14]) was 0.0 and the “herbicidal effect rating, MOOVA” value [2, 14] was 0.0. The “herbicidal effect rating, ECHORC” value [3, 14] was 0.0, the “herbicidal effect rating ORYSAT” value [4] was 0.0 and the “herbicidal effect rating, CYPIR” value (Cyperus iria; [14]) was 0.0.
